Key:
Cbl-b = Cbl-b (Homo sapiens, UniProt Q13191); assay: Cbl-b inhibition assay (Cbl-b activity assay, FRET, Biological Example 1; 100 mM NaCl, 60 nM Src kinase); format: biochemical; details: upper bound stated in text lists; read-out: IC50 values in the Cbl-b inhibition assay of Biological Example 1
Procedure, shortened: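 Inhibitor activity is measured as reduced terbium-to-fluorescein FRET between streptavidin-terbium on biotinylated Cbl-b and Bodipy-fluorescein ubiquitin carried by an irreversible UbcH5B-Ub conjugate, binding of which depends on Src phosphorylation of Cbl-b.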

T-cell = assay: IL-2 secretion from T-cells stimulated with anti-CD3 antibody alone (Biological Example 2); format: cell-based, human; details: T-cell, fold change over baseline, primary human total T-cells, read-out: IL-2 secretion Anti-CD3 stimulation; for fold induction at 1 µM: 1 μM Cbl-b inhibitor; for fold induction at 8 µM: 8 μM Cbl-b inhibitor
Cbl-b (residues 36-427) = Cbl-b (residues 36-427) (Homo sapiens, UniProt Q13191); assay: Cbl-b binding assay (SPR, Biacore T200); details: 20° C., 1:1 binding model
Cbl-b (residues 36-427), sequence (Q13191 36-427): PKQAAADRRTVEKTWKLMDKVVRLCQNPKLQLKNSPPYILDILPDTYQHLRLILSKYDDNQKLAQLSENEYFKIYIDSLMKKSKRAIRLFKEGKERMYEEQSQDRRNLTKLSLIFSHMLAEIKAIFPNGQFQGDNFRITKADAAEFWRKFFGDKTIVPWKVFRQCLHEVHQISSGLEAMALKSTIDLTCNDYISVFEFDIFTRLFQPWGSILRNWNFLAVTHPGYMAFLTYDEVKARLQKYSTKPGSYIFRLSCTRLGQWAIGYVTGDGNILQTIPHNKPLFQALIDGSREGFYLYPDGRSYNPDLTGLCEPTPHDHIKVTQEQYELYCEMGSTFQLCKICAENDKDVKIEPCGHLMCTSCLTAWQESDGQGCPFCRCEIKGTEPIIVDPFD
Procedure, shortened: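 Steps: capture protein on NeutrAvidin surface; inject compound dilutions (8 or 10 points from 100 or 50 μM) 50 s; allow 90-180 s dissociation; regenerate 20 s with 0.3 M NaCl. Runs at 20° C in HEPES pH 7.5/100 mM NaCl/2% DMSO; 1:1 fitting.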

Cbl-b, sequence (Q13191 36-427): as above

C[C@H](Sc1nncn1C)c1cccc(NC(=O)c2cccc(C(C)(F)F)n2)c1 [Compound 81, (S)-6-(1,1-difluoroethyl)-N-(3-(1-((4-methyl-4H-1,2,4-triazol-3-yl)thio)ethyl)phenyl)picolinamide]
IC50 (Cbl-b): ≤ 500 nM | fold induction at 1 µM (T-cell): < 0.05 | fold induction at 8 µM (T-cell): 0.151 to 0.2 | Kd (Cbl-b (residues 36-427)): 301 to 1000 nM

Cn1cnnc1C[C@](C)(F)c1cccc(N2Cc3c(cccc3C(F)(F)F)C2=O)c1 [Compound 298b, (S)-2-(3-(2-fluoro-1-(4-methyl-4H-1,2,4-triazol-3-yl)propan-2-yl)phenyl)-4-(trifluoromethyl)isoindolin-1-one]
IC50 (Cbl-b): ≤ 500 nM | fold induction at 1 µM (T-cell): 0.051 to 0.1 | fold induction at 8 µM (T-cell): 0.101 to 0.15 | Kd (Cbl-b (residues 36-427)): 100 to 300 nM

Cn1cnnc1[C@@H]1C[C@@H]1c1cccc(N2Cc3c(cccc3C(F)(F)F)C2=O)c1 [Compound 282, 2-(3-((1S,2R)-2-(4-methyl-4H-1,2,4-triazol-3-yl)cyclopropyl)phenyl)-4-(trifluoromethyl)isoindolin-1-one]
IC50 (Cbl-b): ≤ 500 nM | fold induction at 1 µM (T-cell): < 0.05 | fold induction at 8 µM (T-cell): < 0.05 | Kd (Cbl-b (residues 36-427)): 301 to 1000 nM

C[C@H](Cc1nncn1C)c1cccc(N2Cc3c(ccnc3C3CC3)C2=O)c1 [Compound 257, 4-cyclopropyl-2-[3-[(1R)-1-methyl-2-(4-methyl-1,2,4-triazol-3-yl)ethyl]phenyl]-3H-pyrrolo[3,4-c]pyridin-1-one]
IC50 (Cbl-b): ≤ 500 nM | fold induction at 1 µM (T-cell): 0.151 to 0.2 | fold induction at 8 µM (T-cell): > 0.201 | Kd (Cbl-b (residues 36-427)): 301 to 1000 nM

C[C@H](Cc1nncn1C)c1cccc(NC(=O)c2cccc(S(C)(=O)=O)n2)c1 [Compound 185, (R)-N-(3-(1-(4-methyl-4H-1,2,4-triazol-3-yl)propan-2-yl)phenyl)-6-(methylsulfonyl)picolinamide]
IC50 (Cbl-b): ≤ 1000 nM | fold induction at 1 µM (T-cell): 0.051 to 0.1 | fold induction at 8 µM (T-cell): 0.051 to 0.1 | Kd (Cbl-b (residues 36-427)): 1000 to 3000 nM

C[C@H](Sc1nncn1C)c1ccnc(NC(=O)c2cc(C3CC3)cc(C(F)(F)F)n2)c1 [Compound 104, (S)-4-cyclopropyl-N-(4-(1-((4-methyl-4H-1,2,4-triazol-3-yl)thio)ethyl)pyridin-2-yl)-6-(trifluoromethyl)picolinamide]
IC50 (Cbl-b): ≤ 1000 nM | fold induction at 1 µM (T-cell): < 0.05 | fold induction at 8 µM (T-cell): < 0.05 | Kd (Cbl-b (residues 36-427)): 1000 to 3000 nM

C[C@H](Sc1nncn1C)c1cccc(N2Cc3c(ccnc3Cl)C2=O)c1 [Compound 167, 4-chloro-2-[3-[(1S)-1-[(4-methyl-1,2,4-triazol-3-yl)sulfanyl]ethyl]phenyl]-3H-pyrrolo[3,4-c]pyridin-1-one]
IC50 (Cbl-b): ≤ 500 nM | fold induction at 1 µM (T-cell): < 0.05 | fold induction at 8 µM (T-cell): 0.101 to 0.15 | Kd (Cbl-b (residues 36-427)): 301 to 1000 nM

C[C@H](Cc1nncn1C)c1cccc(NC(=O)c2cccc(C(F)(F)CO)n2)c1 [Compound 188, (R)-6-(1,1-difluoro-2-hydroxyethyl)-N-(3-(1-(4-methyl-4H-1,2,4-triazol-3-yl)propan-2-yl)phenyl)picolinamide]
IC50 (Cbl-b): ≤ 500 nM | fold induction at 1 µM (T-cell): < 0.05 | fold induction at 8 µM (T-cell): 0.051 to 0.1 | Kd (Cbl-b (residues 36-427)): 301 to 1000 nM

C[C@H](Sc1nncn1C)c1cccc(NC(=O)c2ccc(Cl)c(C(F)(F)F)n2)c1 [Compound 51, (S)-5-chloro-N-(3-(1-((4-methyl-4H-1,2,4-triazol-3-yl)thio)ethyl)phenyl)-6-(trifluoromethyl)picolinamide]
IC50 (Cbl-b): ≤ 500 nM | fold induction at 1 µM (T-cell): < 0.05 | fold induction at 8 µM (T-cell): < 0.05 | Kd (Cbl-b (residues 36-427)): 301 to 1000 nM

C[C@H](Cc1nncn1C1CC1)c1cccc(N2Cc3c(cccc3C(F)(F)F)C2=O)c1 [Compound 265, (R)-2-(3-(1-(4-cyclopropyl-4H-1,2,4-triazol-3-yl)propan-2-yl)phenyl)-4-(trifluoromethyl)isoindolin-1-one]
IC50 (Cbl-b): ≤ 1000 nM | fold induction at 1 µM (T-cell): < 0.05 | fold induction at 8 µM (T-cell): < 0.05 | Kd (Cbl-b (residues 36-427)): 3000 to 10000 nM

C[C@H](Cc1nncn1C)c1cccc(NC(=O)c2cc(C3(O)COC3)cc(C(F)(F)F)n2)c1 [Compound 190, (R)-4-(3-hydroxyoxetan-3-yl)-N-(3-(1-(4-methyl-4H-1,2,4-triazol-3-yl)propan-2-yl)phenyl)-6-(trifluoromethyl)picolinamide]
IC50 (Cbl-b): ≤ 500 nM | fold induction at 1 µM (T-cell): < 0.05 | fold induction at 8 µM (T-cell): 0.101 to 0.15 | Kd (Cbl-b (residues 36-427)): 100 to 300 nM

C[C@H](Sc1nncn1C)c1cccc(NC(=O)c2cc(C(=O)N3CC[C@H](O)C3)ccn2)c1 [Compound 140, 4-[[(3S)-3-hydroxypyrrolidin-1-yl]carbonyl]-N-[3-[(1S)-1-[(4-methyl-4H-1,2,4-triazol-3-yl)sulfanyl]ethyl]phenyl]pyridine-2-carboxamide]
IC50 (Cbl-b): ≤ 500 nM | fold induction at 1 µM (T-cell): < 0.05 | fold induction at 8 µM (T-cell): < 0.05 | Kd (Cbl-b (residues 36-427)): 301 to 1000 nM

Cc1cc(C)nc(C(=O)Nc2cccc([C@H](C)Sc3nncn3C)c2)c1 [Compound 56, (S)-4,6-dimethyl-N-(3-(1-((4-methyl-4H-1,2,4-triazol-3-yl)thio)ethyl)phenyl)picolinamide]
IC50 (Cbl-b): ≤ 1000 nM | fold induction at 1 µM (T-cell): < 0.05 | fold induction at 8 µM (T-cell): < 0.05 | Kd (Cbl-b (residues 36-427)): 1000 to 3000 nM

C[C@H](Sc1nncn1C)c1cccc(NC(=O)c2cc(C(F)(F)F)cc(C3CC3)n2)c1 [Compound 69, (S)-6-cyclopropyl-N-(3-(1-((4-methyl-4H-1,2,4-triazol-3-yl)thio)ethyl)phenyl)-4-(trifluoromethyl)picolinamide]
IC50 (Cbl-b): ≤ 500 nM | fold induction at 1 µM (T-cell): < 0.05 | fold induction at 8 µM (T-cell): < 0.05 | Kd (Cbl-b (residues 36-427)): 3000 to 10000 nM

Cc1ncc(C(=O)Nc2cccc([C@H](C)Sc3nncn3C)c2)nc1C1CC1 [Compound 70, (S)-6-cyclopropyl-5-methyl-N-(3-(1-((4-methyl-4H-1,2,4-triazol-3-yl)thio)ethyl)phenyl)pyrazine-2-carboxamide]
IC50 (Cbl-b): ≤ 500 nM | fold induction at 1 µM (T-cell): < 0.05 | fold induction at 8 µM (T-cell): 0.051 to 0.1 | Kd (Cbl-b (residues 36-427)): 301 to 1000 nM

Cc1conc1C[C@@H](C)c1cccc(NC(=O)c2ccnc(C(F)(F)F)n2)c1 [Compound 213a, (R)-N-(3-(1-(4-methylisoxazol-3-yl)propan-2-yl)phenyl)-2-(trifluoromethyl)pyrimidine-4-carboxamide]
IC50 (Cbl-b): ≤ 500 nM | fold induction at 1 µM (T-cell): 0.051 to 0.1 | fold induction at 8 µM (T-cell): 0.101 to 0.15 | Kd (Cbl-b (residues 36-427)): 100 to 300 nM

C[C@H](Sc1nncn1C)c1cccc(NC(=O)c2cc(C(F)(F)F)ccn2)c1 [Compound 32, (S)-N-(3-(1-((4-Methyl-4H-1,2,4-triazol-3-yl)thio)ethyl)phenyl)-4-(trifluoromethyl)picolinamide]
IC50 (Cbl-b): ≤ 10000 nM | fold induction at 1 µM (T-cell): < 0.05 | fold induction at 8 µM (T-cell): 0.101 to 0.15 | Kd (Cbl-b (residues 36-427)): 1000 to 3000 nM

C[C@H](Sc1nncn1C)c1cc(F)cc(N2Cc3c(cccc3C(F)(F)F)C2=O)c1 [Compound 168a, 2-[3-fluoro-5-[(1S)-1-[(4-methyl-1,2,4-triazol-3-yl)sulfanyl]ethyl]phenyl]-4-(trifluoromethyl)isoindolin-1-one]
IC50 (Cbl-b): ≤ 500 nM | fold induction at 1 µM (T-cell): < 0.05 | fold induction at 8 µM (T-cell): < 0.05 | Kd (Cbl-b (residues 36-427)): 301 to 1000 nM

C[C@H](Sc1nncn1C)c1cccc(NC(=O)c2cc(C(=O)N3CC(O)C3)ccn2)c1 [Compound 148, (S)-4-(3-hydroxyazetidine-1-carbonyl)-N-(3-(1-((4-methyl-4H-1,2,4-triazol-3-yl)thio)ethyl)phenyl)picolinamide]
IC50 (Cbl-b): ≤ 500 nM | fold induction at 1 µM (T-cell): < 0.05 | fold induction at 8 µM (T-cell): < 0.05 | Kd (Cbl-b (residues 36-427)): 1000 to 3000 nM

C[C@H](Sc1nncn1C)c1ccnc(NC(=O)c2cc3c(C(F)(F)F)cccc3[nH]2)c1 [Compound 120, N-[4-[(1S)-1-[(4-methyl-1,2,4-triazol-3-yl)sulfanyl]ethyl]-2-pyridyl]-4-(trifluoromethyl)-1H-indole-2-carboxamide]
IC50 (Cbl-b): ≤ 500 nM | fold induction at 1 µM (T-cell): < 0.05 | fold induction at 8 µM (T-cell): < 0.05 | Kd (Cbl-b (residues 36-427)): 301 to 1000 nM

Cc1ccc(C(=O)Nc2cccc([C@H](C)Cc3nnc[nH]3)c2)nc1C1CC1 [Compound 212, (R)-N-(3-(1-(4H-1,2,4-triazol-3-yl)propan-2-yl)phenyl)-6-cyclopropyl-5-methylpicolinamide]
IC50 (Cbl-b): ≤ 500 nM | fold induction at 1 µM (T-cell): < 0.05 | fold induction at 8 µM (T-cell): < 0.05 | Kd (Cbl-b (residues 36-427)): 1000 to 3000 nM

Reference: patent US20220324835A1 (Nurix Therapeutics, Inc., priority 2018, published 2022)
